Measured values as given in US11414413B2, “Heterocyclic compound as JAK inhibitor, and salts and therapeutic use thereof” (Suzhou Longbiotech Pharmaceuticals Co., Ltd., priority 2016, dated 2022).
pIC50: −log10 of the molar value.

Experiments:
JAK3 = JAK3 (Homo sapiens (Human), UniProt P52333); experiment: Inhibition of JAK3, luminescence kinase assay (ADP-Glo); type: biochemical; details: purified recombinant JAK3
Method: (§1) The study of the effect of compounds on the activity of purified recombinant JAK was performed by studying the inhibitory activity of the compounds on JAK from the enzymatic level. The experimental principle is to use a luminescence kinase assay to detect the ADP content produced by the reaction of JAK with the substrate Poly (4:1 Glu, Tyr) peptide: after ADP is converted to ATP, ATP can act as a substrate for the Ultra-Glo luciferase catalytic reaction, producing an optical signal. The luminescence signal is positively correlated with the amount of ADP and kinase activity. Therefore, the inhibitory effect of the compounds on the recombinant JAK was determined by observing the luminescence signal produced by the reaction of JAK and the substrate, and was expressed by IC50.
(§2) Experimental method: 10 different concentrations of compounds were incubated with JAK1, JAK2 and JAK3, respectively, for 60 minutes at 37° C. The substrate and ATP were then added, mixed, and reacted at 37° C. for 50 minutes. 25 μl of ADP-Glo™ was added and mixed for 2 minutes. The reaction was carried out for 50 minutes at room temperature. Further, 50 μl of the detection reagent was added and mixed for 2 minutes, and incubated at room temperature for 50 minutes, and detected by a chemiluminometer.

JAK2 = JAK2 (Homo sapiens (Human), UniProt O60674); experiment: Inhibition of JAK2, luminescence kinase assay (ADP-Glo); type: biochemical; details: purified recombinant JAK2
Method: as §1, §2

JAK1 = JAK1 (Homo sapiens (Human), UniProt P23458); experiment: Inhibition of JAK1, luminescence kinase assay (ADP-Glo); type: biochemical; details: purified recombinant JAK1
Method: as §1, §2

Wistar rats = experiment: Effect of repeated administration on hematological parameters in rats; type: in vivo, rat
Method: 48 healthy Wistar rats were taken, half ♀ and half ♂. According to the body weight, they were randomly divided into the control group (Veh). The compound of Example 3 was administered by gavage at doses of 1.5 mg·kg^−1·d^−1 and 4.5 mg·kg^−1·d^−1. Ruxolitinib was administered by gavage at dose of 4.5 mg·kg^−1·d^−1. There were 12 rats in each group, half ♀ and half ♂. The drug was administered by gavage once a day for 4 weeks, and the hematological parameters were examined 1 day and 2 days after the last administration.

[1] = gavage 4.5 mg·kg−1·d−1 once a day for 4 weeks

Chain of JAK3 (P52333 whole entry): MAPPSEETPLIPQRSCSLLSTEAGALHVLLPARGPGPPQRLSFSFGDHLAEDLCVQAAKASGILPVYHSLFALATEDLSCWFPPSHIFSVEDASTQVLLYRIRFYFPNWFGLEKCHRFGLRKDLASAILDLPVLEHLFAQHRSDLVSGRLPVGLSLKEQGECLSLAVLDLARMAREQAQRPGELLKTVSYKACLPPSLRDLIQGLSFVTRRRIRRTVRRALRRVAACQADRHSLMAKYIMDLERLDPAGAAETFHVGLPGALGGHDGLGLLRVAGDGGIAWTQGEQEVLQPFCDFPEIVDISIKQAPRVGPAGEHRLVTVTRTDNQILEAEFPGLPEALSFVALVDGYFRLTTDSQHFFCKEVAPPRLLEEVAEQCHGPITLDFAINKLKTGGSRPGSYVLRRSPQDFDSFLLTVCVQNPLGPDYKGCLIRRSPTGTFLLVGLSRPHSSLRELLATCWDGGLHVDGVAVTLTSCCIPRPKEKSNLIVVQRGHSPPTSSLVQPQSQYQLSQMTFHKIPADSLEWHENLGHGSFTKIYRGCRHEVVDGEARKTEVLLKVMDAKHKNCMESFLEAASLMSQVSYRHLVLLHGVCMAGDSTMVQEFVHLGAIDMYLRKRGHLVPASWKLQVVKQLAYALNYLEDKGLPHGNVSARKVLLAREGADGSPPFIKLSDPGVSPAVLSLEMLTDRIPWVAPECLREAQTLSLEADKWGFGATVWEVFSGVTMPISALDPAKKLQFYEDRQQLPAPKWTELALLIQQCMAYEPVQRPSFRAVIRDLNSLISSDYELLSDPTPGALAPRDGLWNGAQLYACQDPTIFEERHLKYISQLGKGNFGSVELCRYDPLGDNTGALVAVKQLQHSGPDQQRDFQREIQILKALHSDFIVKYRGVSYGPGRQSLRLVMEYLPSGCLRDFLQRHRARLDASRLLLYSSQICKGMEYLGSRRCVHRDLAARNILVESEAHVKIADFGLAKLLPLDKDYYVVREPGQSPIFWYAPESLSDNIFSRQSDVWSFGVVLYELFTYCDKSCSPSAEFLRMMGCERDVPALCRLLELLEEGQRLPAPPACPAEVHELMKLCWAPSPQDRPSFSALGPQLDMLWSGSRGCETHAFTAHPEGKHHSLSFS
Chain of JAK2 (O60674 whole entry): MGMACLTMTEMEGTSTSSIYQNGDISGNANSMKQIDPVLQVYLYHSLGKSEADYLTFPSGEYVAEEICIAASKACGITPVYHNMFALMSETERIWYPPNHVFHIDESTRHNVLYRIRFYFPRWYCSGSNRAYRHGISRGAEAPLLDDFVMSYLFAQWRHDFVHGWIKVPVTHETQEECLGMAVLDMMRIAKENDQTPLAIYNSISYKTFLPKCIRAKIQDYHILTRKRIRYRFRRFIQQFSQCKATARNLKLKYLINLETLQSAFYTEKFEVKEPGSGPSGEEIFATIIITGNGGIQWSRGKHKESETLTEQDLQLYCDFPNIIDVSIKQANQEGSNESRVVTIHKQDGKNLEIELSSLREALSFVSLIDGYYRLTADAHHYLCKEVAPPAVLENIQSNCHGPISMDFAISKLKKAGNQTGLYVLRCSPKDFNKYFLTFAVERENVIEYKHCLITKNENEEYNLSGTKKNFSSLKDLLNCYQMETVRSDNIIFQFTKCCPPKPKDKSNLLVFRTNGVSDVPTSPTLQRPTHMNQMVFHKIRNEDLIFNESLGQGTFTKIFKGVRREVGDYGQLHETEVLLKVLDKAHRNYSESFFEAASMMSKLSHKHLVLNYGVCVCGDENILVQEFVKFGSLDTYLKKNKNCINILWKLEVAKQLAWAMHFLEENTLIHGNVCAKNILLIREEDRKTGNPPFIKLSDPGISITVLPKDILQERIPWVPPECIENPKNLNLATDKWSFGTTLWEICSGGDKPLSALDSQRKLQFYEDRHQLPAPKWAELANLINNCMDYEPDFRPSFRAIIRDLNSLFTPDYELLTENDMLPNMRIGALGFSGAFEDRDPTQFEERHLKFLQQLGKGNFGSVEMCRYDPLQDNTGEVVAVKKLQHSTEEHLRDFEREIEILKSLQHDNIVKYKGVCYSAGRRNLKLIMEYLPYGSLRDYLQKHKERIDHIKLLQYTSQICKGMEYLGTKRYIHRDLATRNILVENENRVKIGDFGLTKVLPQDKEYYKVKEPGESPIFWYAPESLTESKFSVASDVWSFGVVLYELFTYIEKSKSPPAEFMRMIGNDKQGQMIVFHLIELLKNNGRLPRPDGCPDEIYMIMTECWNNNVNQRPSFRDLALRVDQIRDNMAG
Chain of JAK1 (P23458 whole entry): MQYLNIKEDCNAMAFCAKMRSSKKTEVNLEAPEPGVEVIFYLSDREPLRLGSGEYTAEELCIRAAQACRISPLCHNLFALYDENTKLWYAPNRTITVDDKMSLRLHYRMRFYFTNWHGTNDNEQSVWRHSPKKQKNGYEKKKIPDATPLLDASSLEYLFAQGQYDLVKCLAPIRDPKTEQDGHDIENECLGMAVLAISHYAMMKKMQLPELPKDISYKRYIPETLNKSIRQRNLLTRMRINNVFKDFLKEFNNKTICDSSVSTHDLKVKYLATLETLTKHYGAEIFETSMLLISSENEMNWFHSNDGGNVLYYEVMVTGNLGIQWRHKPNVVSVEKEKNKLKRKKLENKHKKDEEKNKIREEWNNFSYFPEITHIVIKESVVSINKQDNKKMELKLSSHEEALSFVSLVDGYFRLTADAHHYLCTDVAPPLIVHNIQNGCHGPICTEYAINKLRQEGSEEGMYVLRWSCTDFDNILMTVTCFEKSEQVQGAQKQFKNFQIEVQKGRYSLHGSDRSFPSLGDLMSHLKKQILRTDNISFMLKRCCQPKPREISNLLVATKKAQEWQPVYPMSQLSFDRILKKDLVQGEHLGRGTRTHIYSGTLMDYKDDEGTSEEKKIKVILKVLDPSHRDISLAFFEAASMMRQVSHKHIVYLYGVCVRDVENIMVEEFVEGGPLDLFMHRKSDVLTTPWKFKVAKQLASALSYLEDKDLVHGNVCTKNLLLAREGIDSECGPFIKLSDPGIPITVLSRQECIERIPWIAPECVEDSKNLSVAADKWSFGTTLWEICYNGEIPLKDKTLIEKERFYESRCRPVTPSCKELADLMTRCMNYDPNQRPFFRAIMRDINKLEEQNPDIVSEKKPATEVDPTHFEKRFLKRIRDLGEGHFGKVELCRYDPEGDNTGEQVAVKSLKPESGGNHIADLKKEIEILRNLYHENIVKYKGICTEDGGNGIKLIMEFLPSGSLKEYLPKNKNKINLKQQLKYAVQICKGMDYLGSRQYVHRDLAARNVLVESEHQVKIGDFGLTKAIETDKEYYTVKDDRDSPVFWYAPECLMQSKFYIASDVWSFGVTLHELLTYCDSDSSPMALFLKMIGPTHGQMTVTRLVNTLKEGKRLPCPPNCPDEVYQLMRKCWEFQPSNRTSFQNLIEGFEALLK

| Compound | pIC50 (JAK3) | pIC50 (JAK2) | pIC50 (JAK1) | hematological parameter WBC compared with the control group (Veh) (Wistar rats; gavage 1.5 mg·kg−1·d−1 once a day for 4 weeks) | hematological parameter WBC compared with the control group (Veh) (Wistar rats; [1]) |
| --- | --- | --- | --- | --- | --- |
| N#CC1(Nc2ccnc(-c3ccnc4[nH]ccc34)n2)CCCC1 [Example 59, 1-((2-(1H-pyrrolo[2,3-b]pyridin-4-yl)pyrimidin-4-yl)amino)cyclopentanecarbonitrile] | 7.30 to 7.70 | < 7.30 | < 7.30 | – | – |
| CS(=O)(=O)N1CC(C#N)(Nc2ccnc(-c3ccnc4[nH]ccc34)n2)C1 [Example 50, 3-((2-(1H-pyrrolo[2,3-b]pyridin-4-yl)pyrimidin-4-yl)amino)-1-(methylsulfonyl) azetidine-3-carbonitrile] | < 7.30 | < 7.30 | < 7.30 | – | – |
| CCS(=O)(=O)N1CC(CC(N)=O)(n2cc(-c3c[nH]c4ncccc34)cn2)C1 [Example 6, 2-(3-(4-(1H-pyrrolo[2,3-b]pyridin-3-yl)-1H-pyrazol-1-yl)-1-(ethylsulfonyl)azetidin-3-yl)acetamide] | < 7.30 | < 7.30 | < 7.30 | – | – |
| CS(=O)(=O)N1CC(CC(=O)NCC(F)(F)F)(n2cc(-c3ccnc4[nH]ccc34)cn2)C1 [Example 15, 2-(3-(4-(1H-pyrrolo[2,3-b]pyridin-4-yl)-1H-pyrazol-1-yl)-1-(methylsulfonyl)azetidin-3-yl)-N-(2,2,2-trifluoroethyl)acetamide] | > 7.70 | 7.30 to 7.70 | > 7.70 | – | – |
| N#CCC1(n2cc(-c3ncnc4[nH]ccc34)cn2)CCS(=O)(=O)CC1 [Example 3, 2-(4-(4-(7H-pyrrolo[2,3-d]pyrimidin-4-yl)-1H-pyrazol-1-yl)-1,1-dioxotetrahydro-2H-thiopyran-4-yl)acetonitrile] | – | 7.30 to 7.70 | – | no significant decrease | no significant decrease |
| N#CC1(Nc2ccnc(-c3c[nH]c4ncccc34)n2)CCS(=O)(=O)CC1 [Example 51, 4-((2-(1H-pyrrolo[2,3-b]pyridin-3-yl)pyrimidin-4-yl)amino)tetrahydro-2H-thiopyran-4-carbonitrile 1,1-dioxide] | 7.30 to 7.70 | < 7.30 | < 7.30 | – | – |
| CS(=O)(=O)N1CCC(Nc2ccnc(-c3c[nH]c4ncccc34)n2)(C(=O)NCC(F)(F)F)CC1 [Example 37, 4-((2-(1H-pyrrolo[2,3-b]pyridin-3-yl)pyrimidin-4-yl)amino)-1-(methylsulfonyl)-N-(2,2,2-trifluoroethyl)piperidin-4-carboxamide] | 7.30 to 7.70 | < 7.30 | < 7.30 | – | – |
| CC(C)(CC(=O)NCC(F)(F)F)n1cc(-c2ncnc3[nH]ccc23)cn1 [Example 29] | > 7.70 | 7.30 to 7.70 | < 7.30 | – | – |
| CCS(=O)(=O)N1CC(CC(=O)NCC(F)(F)F)(n2cc(-c3c[nH]c4ncccc34)cn2)C1 [Example 7, 2-(3-(4-(1H-pyrrolo[2,3-b]pyridin-3-yl)-1H-pyrazol-1-yl)-1-(ethylsulfonyl)azetidin-3-yl)-N-(2,2,2-trifluoroethyl)acetamide] | < 7.30 | < 7.30 | < 7.30 | – | – |
| N#CC[C@H](C1CCCC1)n1cc(-c2ncnc3[nH]ccc23)cn1 [Ruxolitinib, reference compound] | – | – | – | – | significant decrease |
| O=C(NCC(F)(F)F)C1(Nc2nc(-c3c[nH]c4ncccc34)ncc2F)CCN(S(=O)(=O)C2CC2)CC1 [Example 42, 4-((5-fluoro-2-(1H-pyrrolo[2,3-b]pyridin-3-yl)pyrimidin-4-yl)amino)-1-(cyclopropylsulfonyl)-N-(2,2,2-trifluoroethyl)piperidin-4-carboxamide] | 7.30 to 7.70 | 7.30 to 7.70 | < 7.30 | – | – |
| N#CC1(Nc2ccnc(-c3c[nH]c4ncccc34)n2)CCCC1 [Example 57, 1-((2-(1H-pyrrolo[2,3-b]pyridin-3-yl)pyrimidin-4-yl)amino)cyclopentanecarbonitrile] | 7.30 to 7.70 | < 7.30 | < 7.30 | – | – |
| N#CCC1(n2cc(-c3ccnc4[nH]ccc34)cn2)CCS(=O)(=O)CC1 [Example 4, 2-(4-(4-(1H-pyrrolo[2,3-b]pyridin-4-yl)-1H-pyrazol-1-yl)-1,1-dioxotetrahydro-2H-thiopyran-4-yl)acetonitrile] | < 7.30 | > 7.70 | > 7.70 | – | – |
| O=C(NCC(F)(F)F)C1(Nc2ccnc(-c3c[nH]c4ncccc34)n2)CCN(S(=O)(=O)C2CC2)CC1 [Example 39, 4-((2-(1H-pyrrolo[2,3-b]pyridin-3-yl)pyrimidin-4-yl)amino)-1-(cyclopropylsulfonyl)-N-(2,2,2-trifluoroethyl)piperidin-4-carboxamide] | 7.30 to 7.70 | < 7.30 | < 7.30 | – | – |
| CS(=O)(=O)N1CC(CC(N)=O)(n2cc(-c3ncnc4[nH]ccc34)cn2)C1 [Example 14, 2-(3-(4-(7H-pyrrolo[2,3-d]pyrimidin-4-yl)-1H-pyrazol-1-yl)-1-(methylsulfonyl)azetidin-3-yl) acetamide] | < 7.30 | 7.30 to 7.70 | 7.30 to 7.70 | – | – |
| CCS(=O)(=O)N1CC(CC(=O)NC)(n2cc(-c3ccnc4[nH]ccc34)cn2)C1 [Example 10, 2-(3-(4-(1H-pyrrolo[2,3-b]pyridin-4-yl)-1H-pyrazol-1-yl)-1-(ethylsulfonyl)azetidin-3-yl)-N-methylacetamide] | < 7.30 | < 7.30 | < 7.30 | – | – |
| O=C(CC1(n2cc(-c3c[nH]c4ncccc34)cn2)CCS(=O)(=O)CC1)NCC(F)(F)F [Example 19, 2-(4-(4-(1H-pyrrolo[2,3-b]pyridin-3-yl)-1H-pyrazol-1-yl)-1,1-dioxotetrahydro-2H-thiopyran-4-yl)-N-(2,2,2-trifluoroethyl)acetamide] | < 7.30 | < 7.30 | 7.30 to 7.70 | – | – |
| CC[C@](C)(C#N)Nc1ccnc(-c2ncnc3[nH]ccc23)n1 [Example 61] | < 7.30 | < 7.30 | < 7.30 | – | – |
| CNC(=O)CC1(n2cc(-c3ncnc4[nH]ccc34)cn2)CN(S(C)(=O)=O)C1 [Example 13, 2-(3-(4-(7H-pyrrolo[2,3-d]pyrimidin-4-yl)-1H-pyrazol-1-yl)-1-(methylsulfonyl)azetidin-3-yl)-N-methylacetamide] | < 7.30 | < 7.30 | < 7.30 | – | – |
| CCS(=O)(=O)N1CC(C#N)(Nc2ccnc(-c3c[nH]c4ncccc34)n2)C1 [Example 45, 3-((2-(1H-pyrrolo[2,3-b]pyridin-3-yl)pyrimidin-4-yl)amino)-1-(ethylsulfonyl) azetidine-3-carbonitrile] | 7.30 to 7.70 | 7.30 to 7.70 | < 7.30 | – | – |
| O=C(CC1(n2cc(-c3ccnc4[nH]ccc34)cn2)CCS(=O)(=O)CC1)NCC(F)(F)F [Example 21, 2-(4-(4-(7H-pyrrolo[2,3-b]pyridin-4-yl)-1H-pyrazol-1-yl)-1,1-dioxotetrahydro-2H-thiopyran-4-yl)-N-(2,2,2-trifluoroethyl)acetamide] | < 7.30 | < 7.30 | 7.30 to 7.70 | – | – |
| N#CCC1(n2cc(-c3c[nH]c4ncccc34)cn2)CCS(=O)(=O)CC1 [Example 2, 2-(4-(4-(1H-pyrrolo[2,3-b]pyridin-3-yl)-1H-pyrazol-1-yl)-1,1-dioxotetrahydro-2H-thiopyran-4-yl)acetonitrile] | < 7.30 | 7.30 to 7.70 | > 7.70 | – | – |
| N#CC1(Nc2ccnc(-c3ccnc4[nH]ccc34)n2)CCC1 [Example 56, 1-((2-(1H-pyrrolo[2,3-b]pyridin-4-yl)pyrimidin-4-yl)amino)cyclobutanecarbonitrile] | < 7.30 | < 7.30 | < 7.30 | – | – |
| CS(=O)(=O)N1CCC(CC(=O)NCC(F)(F)F)(n2cc(-c3ncnc4[nH]ccc34)cn2)CC1 [Example 23, 2-(4-(4-(7H-pyrrolo[2,3-b]pyrimidin-4-yl)-1H-pyrazol-1-yl)-1-(methylsulfonyl)piperidin-4-yl)-N-(2,2,2-trifluoroethyl)acetamide] | < 7.30 | < 7.30 | 7.30 to 7.70 | – | – |
